{"source": "ChEMBL document CHEMBL1201862", "about": "“PubChem BioAssay data set” (2004)", "format_in_all_cases": "functional", "key": {"[1]": {"target": "Serine/threonine-protein kinase TBK1 (Homo sapiens, UniProt Q9UHD2)", "sequence (Q9UHD2 whole entry)": "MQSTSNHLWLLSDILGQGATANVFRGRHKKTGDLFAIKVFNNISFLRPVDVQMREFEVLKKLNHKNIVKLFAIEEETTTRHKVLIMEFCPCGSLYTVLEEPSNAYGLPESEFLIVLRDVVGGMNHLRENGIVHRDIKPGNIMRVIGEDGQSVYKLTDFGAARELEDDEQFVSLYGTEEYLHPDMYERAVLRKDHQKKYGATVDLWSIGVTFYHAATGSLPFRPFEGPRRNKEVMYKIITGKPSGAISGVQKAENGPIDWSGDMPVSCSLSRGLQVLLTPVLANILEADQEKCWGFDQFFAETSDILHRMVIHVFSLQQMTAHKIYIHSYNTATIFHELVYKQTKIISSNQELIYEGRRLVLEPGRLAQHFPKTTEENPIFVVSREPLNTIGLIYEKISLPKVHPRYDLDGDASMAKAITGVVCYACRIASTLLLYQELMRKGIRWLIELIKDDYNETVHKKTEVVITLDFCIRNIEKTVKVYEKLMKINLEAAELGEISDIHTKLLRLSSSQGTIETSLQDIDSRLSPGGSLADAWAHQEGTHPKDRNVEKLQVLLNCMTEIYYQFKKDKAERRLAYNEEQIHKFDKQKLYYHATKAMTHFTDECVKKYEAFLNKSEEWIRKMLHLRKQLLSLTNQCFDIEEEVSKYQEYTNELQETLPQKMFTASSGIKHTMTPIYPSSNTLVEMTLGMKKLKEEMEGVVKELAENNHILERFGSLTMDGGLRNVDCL", "assay": "Navigating the Kinome. Panel member name: TBK1"}, "[2]": {"target": "Mast/stem cell growth factor receptor Kit (Homo sapiens, UniProt P10721)", "sequence (P10721 whole entry)": "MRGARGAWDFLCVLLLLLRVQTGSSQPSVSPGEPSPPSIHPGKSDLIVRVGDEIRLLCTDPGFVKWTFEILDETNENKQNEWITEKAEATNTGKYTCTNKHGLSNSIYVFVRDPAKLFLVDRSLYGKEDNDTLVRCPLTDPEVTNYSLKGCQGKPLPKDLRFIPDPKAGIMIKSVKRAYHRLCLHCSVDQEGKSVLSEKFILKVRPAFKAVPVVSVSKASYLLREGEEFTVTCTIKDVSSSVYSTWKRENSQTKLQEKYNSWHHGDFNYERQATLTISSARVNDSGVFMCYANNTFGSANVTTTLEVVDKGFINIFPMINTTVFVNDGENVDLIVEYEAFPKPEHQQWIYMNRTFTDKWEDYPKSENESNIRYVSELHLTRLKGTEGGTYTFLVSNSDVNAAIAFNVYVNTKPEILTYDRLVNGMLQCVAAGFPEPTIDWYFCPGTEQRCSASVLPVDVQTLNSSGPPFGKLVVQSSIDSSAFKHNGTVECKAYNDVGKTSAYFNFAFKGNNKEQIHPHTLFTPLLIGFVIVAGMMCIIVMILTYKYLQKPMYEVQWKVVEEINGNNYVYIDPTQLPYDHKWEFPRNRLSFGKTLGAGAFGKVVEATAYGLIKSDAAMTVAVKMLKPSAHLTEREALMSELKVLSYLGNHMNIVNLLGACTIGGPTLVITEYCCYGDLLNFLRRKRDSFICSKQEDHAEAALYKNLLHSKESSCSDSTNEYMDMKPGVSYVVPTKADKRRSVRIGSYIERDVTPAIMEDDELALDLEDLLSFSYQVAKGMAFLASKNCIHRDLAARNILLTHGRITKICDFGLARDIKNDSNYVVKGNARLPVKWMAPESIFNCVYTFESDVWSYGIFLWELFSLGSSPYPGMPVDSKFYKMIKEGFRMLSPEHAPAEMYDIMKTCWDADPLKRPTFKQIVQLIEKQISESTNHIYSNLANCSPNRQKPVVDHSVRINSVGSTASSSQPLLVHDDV"}, "[3]": {"target": "Fibroblast growth factor receptor 1 (Homo sapiens, UniProt P11362)", "sequence (P11362 whole entry)": "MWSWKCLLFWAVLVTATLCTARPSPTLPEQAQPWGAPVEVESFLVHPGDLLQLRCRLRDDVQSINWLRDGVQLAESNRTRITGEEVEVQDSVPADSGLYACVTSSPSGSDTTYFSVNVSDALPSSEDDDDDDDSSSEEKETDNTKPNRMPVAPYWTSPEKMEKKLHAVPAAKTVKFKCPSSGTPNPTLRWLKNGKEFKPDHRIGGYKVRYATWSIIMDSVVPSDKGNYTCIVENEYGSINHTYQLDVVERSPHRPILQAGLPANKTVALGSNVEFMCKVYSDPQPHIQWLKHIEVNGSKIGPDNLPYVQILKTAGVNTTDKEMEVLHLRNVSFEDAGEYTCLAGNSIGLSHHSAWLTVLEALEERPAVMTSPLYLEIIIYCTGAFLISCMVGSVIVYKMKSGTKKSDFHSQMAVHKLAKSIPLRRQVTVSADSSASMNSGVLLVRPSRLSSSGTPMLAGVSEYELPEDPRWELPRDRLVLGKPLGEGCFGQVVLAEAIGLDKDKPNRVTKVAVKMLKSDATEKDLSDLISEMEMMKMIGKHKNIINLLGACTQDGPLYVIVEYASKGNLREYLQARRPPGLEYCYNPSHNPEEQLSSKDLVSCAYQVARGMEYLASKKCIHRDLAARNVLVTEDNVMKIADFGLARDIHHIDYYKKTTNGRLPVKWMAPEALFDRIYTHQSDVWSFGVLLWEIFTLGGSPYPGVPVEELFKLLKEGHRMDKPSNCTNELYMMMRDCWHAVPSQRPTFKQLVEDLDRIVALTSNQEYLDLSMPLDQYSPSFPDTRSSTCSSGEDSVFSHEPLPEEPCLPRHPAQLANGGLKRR"}, "[4]": {"target": "Serine/threonine-protein kinase Nek2 (Homo sapiens, UniProt P51955)", "sequence (P51955 whole entry)": "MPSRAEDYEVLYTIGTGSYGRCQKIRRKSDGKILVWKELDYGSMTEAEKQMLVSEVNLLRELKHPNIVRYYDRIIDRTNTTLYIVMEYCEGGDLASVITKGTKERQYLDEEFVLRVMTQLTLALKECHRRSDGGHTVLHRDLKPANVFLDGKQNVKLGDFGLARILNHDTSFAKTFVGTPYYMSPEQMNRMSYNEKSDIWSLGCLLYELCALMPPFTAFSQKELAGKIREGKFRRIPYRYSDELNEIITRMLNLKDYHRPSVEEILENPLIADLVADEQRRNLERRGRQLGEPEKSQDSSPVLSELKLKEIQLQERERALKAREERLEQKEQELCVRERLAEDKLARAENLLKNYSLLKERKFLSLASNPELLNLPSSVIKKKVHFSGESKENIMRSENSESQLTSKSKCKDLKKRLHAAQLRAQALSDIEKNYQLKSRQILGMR"}, "[5]": {"target": "T1, Apoptotic protease-activating factor 1 (Homo sapiens, UniProt O14727)", "T1 sequence (O14727 whole entry)": "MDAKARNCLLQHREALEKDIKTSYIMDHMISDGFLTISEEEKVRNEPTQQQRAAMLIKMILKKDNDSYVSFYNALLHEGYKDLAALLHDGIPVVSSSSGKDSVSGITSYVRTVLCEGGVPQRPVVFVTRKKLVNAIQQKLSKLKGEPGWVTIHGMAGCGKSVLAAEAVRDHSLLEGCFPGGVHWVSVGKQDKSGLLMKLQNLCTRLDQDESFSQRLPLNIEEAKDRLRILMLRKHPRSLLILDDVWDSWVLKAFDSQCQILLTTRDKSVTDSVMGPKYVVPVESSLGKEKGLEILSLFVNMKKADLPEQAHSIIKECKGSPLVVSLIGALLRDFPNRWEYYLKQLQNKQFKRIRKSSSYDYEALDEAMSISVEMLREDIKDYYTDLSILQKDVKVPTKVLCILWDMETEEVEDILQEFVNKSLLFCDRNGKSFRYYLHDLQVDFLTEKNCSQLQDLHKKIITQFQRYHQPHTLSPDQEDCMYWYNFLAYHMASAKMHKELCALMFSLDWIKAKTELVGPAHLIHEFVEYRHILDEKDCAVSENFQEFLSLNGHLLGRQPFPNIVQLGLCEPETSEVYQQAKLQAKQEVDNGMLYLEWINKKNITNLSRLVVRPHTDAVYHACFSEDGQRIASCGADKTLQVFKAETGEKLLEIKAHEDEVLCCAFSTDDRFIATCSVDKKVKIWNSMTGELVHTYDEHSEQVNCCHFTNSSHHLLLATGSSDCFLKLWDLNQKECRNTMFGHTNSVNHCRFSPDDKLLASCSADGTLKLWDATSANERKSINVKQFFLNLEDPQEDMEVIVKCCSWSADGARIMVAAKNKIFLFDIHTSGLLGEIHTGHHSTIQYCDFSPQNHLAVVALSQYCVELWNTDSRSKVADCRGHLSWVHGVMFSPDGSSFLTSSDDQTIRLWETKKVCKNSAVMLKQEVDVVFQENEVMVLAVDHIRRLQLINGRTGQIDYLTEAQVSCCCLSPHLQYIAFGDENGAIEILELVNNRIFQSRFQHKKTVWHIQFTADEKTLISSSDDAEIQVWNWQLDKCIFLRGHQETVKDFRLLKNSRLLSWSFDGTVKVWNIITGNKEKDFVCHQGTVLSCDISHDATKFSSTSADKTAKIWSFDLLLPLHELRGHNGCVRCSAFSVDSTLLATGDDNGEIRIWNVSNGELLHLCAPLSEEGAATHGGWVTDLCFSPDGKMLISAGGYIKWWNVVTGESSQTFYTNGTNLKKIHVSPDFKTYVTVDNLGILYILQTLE"}, "[6]": {"assay": "cytotoxicity in MIN6 insulinoma cells, dose response, cytotoxicity control, cell-based, mouse insulinoma (AID 2122);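 further: confirmatory high-throughput counterscreen run to flag cytotoxic compounds; mouse MIN-6 beta cells carrying an insulin promoter eGFP reporter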"}, "[7]": {"target": "T2, Neuropeptide Y receptor type 1 (Homo sapiens, UniProt P25929)", "T2 sequence (P25929 whole entry)": "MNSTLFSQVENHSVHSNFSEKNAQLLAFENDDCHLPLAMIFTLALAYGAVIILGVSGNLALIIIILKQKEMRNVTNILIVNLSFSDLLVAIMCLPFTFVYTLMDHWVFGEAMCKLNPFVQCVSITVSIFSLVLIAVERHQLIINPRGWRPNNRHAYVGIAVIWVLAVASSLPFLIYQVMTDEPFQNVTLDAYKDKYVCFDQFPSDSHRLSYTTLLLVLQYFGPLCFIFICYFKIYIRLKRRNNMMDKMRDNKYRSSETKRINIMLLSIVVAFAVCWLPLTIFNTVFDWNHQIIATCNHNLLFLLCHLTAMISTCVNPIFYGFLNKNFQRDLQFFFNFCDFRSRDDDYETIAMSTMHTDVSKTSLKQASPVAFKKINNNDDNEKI", "assay": "Fluorescence-based dose response cell-based high-throughput screening assay for agonists of NPY-Y1. [Related pubchem assays: 1697 (Screening assay (NPY-Y1 agonists).), 1359 (Screening assay (NPY-Y2 potentiators or agonists).), 1304 (Screening assay (NPY-Y1 potentiators or agonists).), 1704 (Screening assay (CNGC inhibitors).), 1791 (Summary AID.)]"}}, "note": "Calls of active or inactive are those of the source.", "data": [{"compound": "OC1CCC(Nc2cc(Cl)nc(-c3c[nH]c4ncccc34)n2)CC1", "note": "(configuration not stated)", "values": [{"measurement": "Ki", "setting": "[1]", "result": "> 3.16 µM (inactive)"}, {"measurement": "Ki", "setting": "[2]", "result": "> 2.51 µM (inactive)"}, {"measurement": "Ki", "setting": "[3]", "result": "> 2 µM (inactive)"}, {"measurement": "Ki", "setting": "[4]", "result": "3.98 µM (active)"}]}, {"compound": "CCOC(=O)c1c(NS(=O)(=O)c2ccccc2)n(CCCOC)c2nc3ccccc3nc12", "values": [{"measurement": "IC50", "setting": "[5]", "result": "24.2 µM (active)"}]}, {"compound": "COCC/N=c1\\scc(-c2cccs2)n1/N=C/c1ccc(O)c(O)c1O", "values": [{"measurement": "IC50", "setting": "[6]", "result": "> 16 µM (inactive)"}, {"measurement": "EC50", "setting": "[7]", "result": "> 11.8 µM (not active)"}]}]}
